These molecules were tested against FASN enzyme (Homo sapiens, UniProt P49327) (assay: Enzymatic Assay for FASN Inhibitors). Conditions: not given.
Type: biochemical
Experimental: Assays were performed in a 384-well black plate to measure the inhibition of FASN activities by individual compounds herein disclosed. An aliquot of 250 nL of compound was incubated with 10 μL of 40 nM FASN enzyme in assay buffer (50 mM HEPES pH=7.3, 0.5 mM EDTA, 1 mM Ascorbate, 100 mM NaCl and 0.04% TritonX-100) in each well at 25° C. for 60 minutes. After the plate was centrifuged briefly, 10 μL of substrate mix (20 μM Acetyl-CoA, 60 μM Malonyl-CoA, and 100 μM NADPH in assay buffer) was added to each well. The reaction was maintained at 25° C. for 90 minutes. The reaction was then quenched by adding 10 μL of 90 μM 7-Diethylamino-3-(4′-Maleimidylpheynyl)-4-Methylcoumarin in 50/50 Ethanol/H2O solution. The assay plate was incubated at 25° C. for 15 minutes, and read on a plate reader with excitation and emission wavelength at 360 nm and 530 nm, respectively. The IC50 of a given compound was calculated by fitting the dose response curve with a four parameter logistic equation.

Sequence of FASN enzyme (P49327 whole entry): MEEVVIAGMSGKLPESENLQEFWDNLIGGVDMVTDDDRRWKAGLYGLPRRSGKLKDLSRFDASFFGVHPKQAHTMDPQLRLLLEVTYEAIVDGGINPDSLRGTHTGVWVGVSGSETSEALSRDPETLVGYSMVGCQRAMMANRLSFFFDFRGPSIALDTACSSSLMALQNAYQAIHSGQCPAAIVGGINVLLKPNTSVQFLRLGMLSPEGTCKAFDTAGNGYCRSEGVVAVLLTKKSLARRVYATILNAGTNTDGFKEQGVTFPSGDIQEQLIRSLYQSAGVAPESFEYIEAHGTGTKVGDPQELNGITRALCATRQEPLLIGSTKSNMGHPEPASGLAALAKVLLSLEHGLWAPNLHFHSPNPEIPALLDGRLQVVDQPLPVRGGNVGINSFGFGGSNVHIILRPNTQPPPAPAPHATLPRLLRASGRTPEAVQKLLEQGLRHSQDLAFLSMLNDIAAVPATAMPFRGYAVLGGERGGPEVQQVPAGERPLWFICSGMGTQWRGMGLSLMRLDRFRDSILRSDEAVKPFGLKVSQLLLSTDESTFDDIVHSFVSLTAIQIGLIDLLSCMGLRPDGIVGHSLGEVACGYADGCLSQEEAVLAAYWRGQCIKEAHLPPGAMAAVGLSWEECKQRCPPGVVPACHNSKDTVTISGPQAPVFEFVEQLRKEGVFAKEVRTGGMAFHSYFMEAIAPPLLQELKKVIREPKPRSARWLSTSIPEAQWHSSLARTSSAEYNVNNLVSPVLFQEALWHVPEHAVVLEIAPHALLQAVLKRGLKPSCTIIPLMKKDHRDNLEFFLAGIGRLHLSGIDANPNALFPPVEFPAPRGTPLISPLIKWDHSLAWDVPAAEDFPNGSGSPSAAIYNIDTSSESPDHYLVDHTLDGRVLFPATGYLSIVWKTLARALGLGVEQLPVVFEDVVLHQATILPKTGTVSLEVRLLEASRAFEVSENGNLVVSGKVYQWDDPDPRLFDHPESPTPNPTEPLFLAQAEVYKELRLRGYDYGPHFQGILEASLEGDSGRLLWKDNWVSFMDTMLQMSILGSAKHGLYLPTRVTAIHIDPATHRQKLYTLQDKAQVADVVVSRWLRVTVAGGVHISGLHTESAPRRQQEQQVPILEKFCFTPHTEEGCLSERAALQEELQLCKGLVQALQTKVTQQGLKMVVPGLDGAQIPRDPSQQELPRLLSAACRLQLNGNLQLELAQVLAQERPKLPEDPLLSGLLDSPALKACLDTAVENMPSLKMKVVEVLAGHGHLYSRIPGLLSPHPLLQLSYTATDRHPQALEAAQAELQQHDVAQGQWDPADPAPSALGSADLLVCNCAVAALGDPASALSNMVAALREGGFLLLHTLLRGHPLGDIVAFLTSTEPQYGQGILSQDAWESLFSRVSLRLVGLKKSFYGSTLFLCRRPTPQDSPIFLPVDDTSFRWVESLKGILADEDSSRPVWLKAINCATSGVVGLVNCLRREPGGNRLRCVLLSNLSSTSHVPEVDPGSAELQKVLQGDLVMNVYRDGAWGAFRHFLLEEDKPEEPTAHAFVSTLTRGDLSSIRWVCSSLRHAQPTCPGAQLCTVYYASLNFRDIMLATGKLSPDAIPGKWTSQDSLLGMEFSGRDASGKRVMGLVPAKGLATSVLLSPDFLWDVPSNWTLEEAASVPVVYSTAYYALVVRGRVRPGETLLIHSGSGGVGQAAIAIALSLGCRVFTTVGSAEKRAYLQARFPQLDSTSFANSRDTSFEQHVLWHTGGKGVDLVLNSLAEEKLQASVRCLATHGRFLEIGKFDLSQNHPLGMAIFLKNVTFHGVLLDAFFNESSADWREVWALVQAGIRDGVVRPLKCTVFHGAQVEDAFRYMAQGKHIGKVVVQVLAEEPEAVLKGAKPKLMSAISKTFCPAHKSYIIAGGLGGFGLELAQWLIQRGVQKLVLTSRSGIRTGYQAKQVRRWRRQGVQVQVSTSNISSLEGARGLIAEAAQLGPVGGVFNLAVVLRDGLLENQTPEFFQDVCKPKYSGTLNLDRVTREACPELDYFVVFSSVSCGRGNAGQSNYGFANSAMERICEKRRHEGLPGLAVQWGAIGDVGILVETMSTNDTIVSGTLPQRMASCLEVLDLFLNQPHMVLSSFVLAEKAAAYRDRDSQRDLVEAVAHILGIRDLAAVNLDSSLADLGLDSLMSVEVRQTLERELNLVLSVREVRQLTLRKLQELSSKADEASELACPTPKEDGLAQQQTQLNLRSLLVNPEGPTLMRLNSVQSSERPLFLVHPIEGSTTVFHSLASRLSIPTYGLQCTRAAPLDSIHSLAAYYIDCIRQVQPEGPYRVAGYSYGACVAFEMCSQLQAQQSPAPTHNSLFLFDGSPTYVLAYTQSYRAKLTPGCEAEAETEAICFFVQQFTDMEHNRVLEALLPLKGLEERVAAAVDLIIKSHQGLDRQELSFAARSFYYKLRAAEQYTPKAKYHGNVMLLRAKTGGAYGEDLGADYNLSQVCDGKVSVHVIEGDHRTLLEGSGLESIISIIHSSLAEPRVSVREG

SMILES	IC50
Cn1cnc2cc(-c3ccc(C(=O)N4CCN(C(=O)C5(N)CC5)CC4)c(F)c3)ccc21 [1-{4-[2-fluoro-4-(1-methyl-1H-1,3-benzodiazol-5-yl)benzoyl]piperazine-1-carbonyl}cyclopropan-1-amine]	< 500 nM
N#CC1(c2cccc(-c3ccc(C(=O)N4CCN(C(=O)C5(N)CC5)CC4)cc3)c2)CC1 [1-(3-{4-[4-(1-aminocyclopropanecarbonyl)piperazine-1-carbonyl]phenyl}phenyl)cyclopropane-1-carbonitrile]	< 500 nM
O=C(c1ccc(-c2cccc(N3CCNC3=O)c2)cc1)N1CCN(C(=O)C2(O)CC2)CC1 [1-(3-{4-[4-(1-hydroxycyclopropanecarbonyl)piperazine-1-carbonyl]phenyl}phenyl)imidazolidin-2-one]	< 500 nM
Cn1cc2ccc(-c3ccc(C(=O)N4CCN(C(=O)C5(N)CC5)CC4)c(F)c3)cc2n1 [1-{4-[2-fluoro-4-(2-methyl-2H-indazol-6-yl)benzoyl]piperazine-1-carbonyl}cyclopropan-1-amine]	< 500 nM
C[C@@H]1CN(C(=O)c2ccc(-c3ccc4c(c3)ncn4C)cc2)C[C@H](C)N1C(=O)C1(O)CC1 [1-[(2R,6S)-2,6-dimethyl-4-[4-(1-methyl-1H-1,3-benzodiazol-5-yl)benzoyl]piperazine-1-carbonyl]cyclopropan-1-ol]	< 500 nM
O=C(c1ccc(N2CCc3ccccc3CC2)cc1)N1CCN(C(=O)C2(O)CC2)CC1 [1-{4-[4-(2,3,4,5-tetrahydro-1H-3-benzazepin-3-yl)benzoyl]piperazine-1-carbonyl}cyclopropan-1-ol]	< 500 nM
Cn1ncc2ccc(-c3ccc(C(=O)N4CCN(C(=O)C5(N)CCC5)CC4)cc3)cc21 [1-{4-[4-(1-methyl-1H-indazol-6-yl)benzoyl]piperazine-1-carbonyl}cyclobutan-1-amine]	< 500 nM
Cn1cnc2cc(-c3ccc(C(=O)N4CCN(C(=O)C5CCO5)CC4)cc3)ccc21 (centres unmarked) [1-methyl-5-{4-[4-(oxetane-2-carbonyl)piperazine-1-carbonyl]phenyl}-1H-1,3-benzodiazole]	< 500 nM
Nc1cc(-c2cccc(-c3ccc(C(=O)N4CCN(C(=O)C5(N)CC5)CC4)c(F)c3)c2)no1 [3-(3-{4-[4-(1-aminocyclopropanecarbonyl)piperazine-1-carbonyl]-3-fluorophenyl}phenyl)-1,2-oxazol-5-amine]	< 500 nM
O=C(c1ccc(-n2ncc3ccccc32)cc1)N1CCN(C(=O)C2(O)CC2)CC1 [1-{4-[4-(1H-indazol-1-yl)benzoyl]piperazine-1-carbonyl}cyclopropan-1-ol]	< 500 nM
Cn1cc2ccc(-c3ccc(C(=O)N4CCN(C(=O)C5(O)CC5)CC4)c(Cl)c3)cc2n1 [1-{4-[2-chloro-4-(2-methyl-2H-indazol-6-yl)benzoyl]piperazine-1-carbonyl}cyclopropan-1-ol]	< 500 nM
O=C(Nc1noc2ccc(-c3ccc(C(=O)N4CCN(C(=O)C5(O)CC5)CC4)cc3)cc12)C1CC1 [N-(5-{4-[4-(1-hydroxycyclopropanecarbonyl)piperazine-1-carbonyl]phenyl}-1,2-benzoxazol-3-yl)cyclopropanecarboxamide]	< 500 nM
Cc1nc(-c2cccc(-c3ccc(C(=O)N4CCN(C(=O)C5(O)CC5)CC4)cc3)c2)no1 [1-(4-{4-[3-(5-methyl-1,2,4-oxadiazol-3-yl)phenyl]benzoyl}piperazine-1-carbonyl)cyclopropan-1-ol]	< 500 nM
O=C(Nc1noc2cc(-c3ccc(C(=O)N4CCN(C(=O)C5(O)CC5)CC4)cc3)ccc12)C1CC1 [N-(6-{4-[4-(1-hydroxycyclopropanecarbonyl)piperazine-1-carbonyl]phenyl}-1,2-benzoxazol-3-yl)cyclopropanecarboxamide]	< 500 nM
Cc1nnc(-c2cccc(-c3ccc(C(=O)N4CCN(C(=O)C5(O)CC5)CC4)cc3)c2)s1 [1-(4-{4-[3-(5-methyl-1,3,4-thiadiazol-2-yl)phenyl]benzoyl}piperazine-1-carbonyl)cyclopropan-1-ol]	< 500 nM

Other lines, results leading:

IC50	SMILES
< 500 nM	O=C(c1ccc(-c2cc3ccccc3[nH]2)cc1)N1CCN(C(=O)C2(O)CC2)CC1 [1-[(4-{[4-(1H-indol-2-yl)phenyl]carbonyl}piperazin-1-yl)carbonyl]cyclopropan-1-ol]
< 500 nM	O=C(c1ccc(N2Cc3ccc(F)cc3C2)cc1)N1CCN(C(=O)C2(O)CC2)CC1 [1-{4-[4-(5-fluoro-2,3-dihydro-1H-isoindol-2-yl)benzoyl]piperazine-1-carbonyl}cyclopropan-1-ol]
< 500 nM	O=C(c1ccc(-c2cc(Cl)ccc2Cl)cc1)N1CCN(C(=O)C2(O)CC2)CC1 [1-[(4-{[4-(2,5-dichlorophenyl)phenyl]carbonyl}piperazin-1-yl)carbonyl]cyclopropan-1-ol]
< 500 nM	Cc1n[nH]c2c(-c3ccc(C(=O)N4CCN(C(=O)C5(O)CC5)CC4)cc3)cccc12 [1-{4-[4-(3-methyl-1H-indazol-7-yl)benzoyl]piperazine-1-carbonyl}cyclopropan-1-ol]
< 500 nM	O=C(c1ccc(-c2ccc(Cl)c(Cl)c2)cc1)N1CCN(C(=O)C2(O)CC2)CC1 [1-[(4-{[4-(3,4-dichlorophenyl)phenyl]carbonyl}piperazin-1-yl)carbonyl]cyclopropan-1-ol]
< 500 nM	O=C(c1ccc(-c2cccc(OCC3CC3)c2)cc1)N1CCN(C(=O)C2(O)CC2)CC1
< 500 nM	CNC(=O)c1cccc(-c2ccc(C(=O)N3CCN(C(=O)C4(O)CC4)CC3)cc2)c1 [3-{4-[4-(1-hydroxycyclopropanecarbonyl)piperazine-1-carbonyl]phenyl}-N-methylbenzamide]
< 500 nM	N#CCc1cccc(-c2ccc(C(=O)N3CCN(C(=O)C4(O)CC4)CC3)cc2)c1 [2-(3-{4-[4-(1-hydroxycyclopropanecarbonyl)piperazine-1-carbonyl]phenyl}phenyl)acetonitrile]
< 500 nM	O=C(c1ccc(-c2cccc(OC3CC3)c2)cc1)N1CCN(C(=O)C2(O)CC2)CC1
< 500 nM	Cn1nc(O)c2ccc(-c3ccc(C(=O)N4CCN(C(=O)C5(O)CC5)CC4)cc3)cc21 [6-{4-[4-(1-hydroxycyclopropanecarbonyl)piperazine-1-carbonyl]phenyl}-1-methyl-1H-indazol-3-ol]

Same assay, conditions: FASN enzymatic assay; Table 2-2

IC50	SMILES
500 to 5000 nM	O=C(c1ccc(-c2ccn3ccnc3n2)cc1)N1CCN(C(=O)C2(O)CC2)CC1 [1-({4-[(4-{imidazo[1,2-a]pyrimidin-7-yl}phenyl)carbonyl]piperazin-1-yl}carbonyl)cyclopropan-1-ol]
500 to 5000 nM	CNC(=O)c1ccc(F)c(-c2ccc(C(=O)N3CCN(C(=O)C4(O)CC4)CC3)cc2)c1 [4-fluoro-3-[4-({4-[(1-hydroxycyclopropyl)carbonyl]piperazin-1-yl}carbonyl)phenyl]-N-methylbenzamide]
500 to 5000 nM	O=C(c1ccc(-c2ccc3nccn3c2)cc1)N1CCN(C(=O)C2(O)CC2)CC1 [1-({4-[(4-{imidazo[1,2-a]pyridin-6-yl}phenyl)carbonyl]piperazin-1-yl}carbonyl)cyclopropan-1-ol]
500 to 5000 nM	Cn1c(-c2ccc(C(=O)N3CCN(C(=O)C4(O)CC4)CC3)cc2)nc2ccccc21 [1-[(4-{[4-(1-methyl-1H-1,3-benzodiazol-2-yl)phenyl]carbonyl}piperazin-1-yl)carbonyl]cyclopropan-1-ol]
500 to 5000 nM	COc1ccc(-c2ccc(C(=O)N3CCN(C(=O)C4(O)CC4)CC3)cc2)c(F)c1 [1-[(4-{[4-(2-fluoro-4-methoxyphenyl)phenyl]carbonyl}piperazin-1-yl)carbonyl]cyclopropan-1-ol]

Same assay, conditions: FASN enzymatic assay; Table 2-3

SMILES	IC50
Cc1nc(-c2ccc3scnc3c2)sc1C(=O)N1CCN(C(=O)C2(O)CC2)CC1 [1-[(4-{[2-(1,3-benzothiazol-5-yl)-4-methyl-1,3-thiazol-5-yl]carbonyl}piperazin-1-yl)carbonyl]cyclopropan-1-ol]	≥ 5000 nM
CC(C)(O)C(=O)N1CCN(C(=O)c2ccc(-c3ccccc3)cc2)CC1 [2-hydroxy-2-methyl-1-{4-[(4-phenylphenyl)carbonyl]piperazin-1-yl}propan-1-one]	≥ 5000 nM
O=C(CO)N1CCN(C(=O)c2ccc(-c3ccccc3)cc2)CC1 [2-hydroxy-1-{4-[(4-phenylphenyl)carbonyl]piperazin-1-yl}ethan-1-one]	≥ 5000 nM

More lines, now with the values ahead:

IC50	SMILES
≥ 5000 nM	Cc1cccc(-c2ccc(C(=O)N3CCN(C(=O)C4(O)CC4)CC3)cc2)c1 [1-[(4-{[4-(3-methylphenyl)phenyl]carbonyl}piperazin-1-yl)carbonyl]cyclopropan-1-ol]
≥ 5000 nM	COc1ccc(-c2ccc(C(=O)N3CCN(C(=O)C4(O)CC4)CC3)cc2)c(Cl)c1 [1-[(4-{[4-(2-chloro-4-methoxyphenyl)phenyl]carbonyl}piperazin-1-yl)carbonyl]cyclopropan-1-ol]
≥ 5000 nM	CC(C)Oc1ccc(Cl)cc1-c1ccc(C(=O)N2CCN(C(=O)C3(O)CC3)CC2)cc1 [1-{[4-({4-[5-chloro-2-(propan-2-yloxy)phenyl]phenyl}carbonyl)piperazin-1-yl]carbonyl}cyclopropan-1-ol]
≥ 5000 nM	Cc1ccc(F)cc1-c1ccc(C(=O)N2CCN(C(=O)C3(O)CC3)CC2)cc1 [1-[(4-{[4-(5-fluoro-2-methylphenyl)phenyl]carbonyl}piperazin-1-yl)carbonyl]cyclopropan-1-ol]
≥ 5000 nM	CC(C)Oc1cccc(-c2ccc(C(=O)N3CCN(C(=O)C4(O)CC4)CC3)cc2)c1F [1-{[4-({4-[2-fluoro-3-(propan-2-yloxy)phenyl]phenyl}carbonyl)piperazin-1-yl]carbonyl}cyclopropan-1-ol]

Source: US10457655B2, “Compounds and compositions for inhibition of FASN” (FORMA Therapeutics, Inc., priority 2013, dated 2019)
